Measured values from patent publication US9944600B2, “Piperidine derivatives for GPR119 agonist” (CHONG KUN DANG PHARMACEUTICAL CORP., priority 2012, dated 2018).

Key:
human GPR119 receptor = biological target: T1, human GPR119 receptor (Homo sapiens, UniProt Q8TDV5); experiment: Activity test for human GPR119 receptor (GeneBLAzer T-Rex GPR 119 CHO-K1 DA cells, fluorescence reporter); assay type: cell-based; settings: 5 hours treatment; for activity at 0.1 µM / activity at 1 µM / activity at 10 µM: read-out: % Activation
T1 construct: host or cells: GeneBLAzer T-Rex GPR 119 CHO-K1 DA cells (CHO-K1)
T1 sequence (Q8TDV5 1-335): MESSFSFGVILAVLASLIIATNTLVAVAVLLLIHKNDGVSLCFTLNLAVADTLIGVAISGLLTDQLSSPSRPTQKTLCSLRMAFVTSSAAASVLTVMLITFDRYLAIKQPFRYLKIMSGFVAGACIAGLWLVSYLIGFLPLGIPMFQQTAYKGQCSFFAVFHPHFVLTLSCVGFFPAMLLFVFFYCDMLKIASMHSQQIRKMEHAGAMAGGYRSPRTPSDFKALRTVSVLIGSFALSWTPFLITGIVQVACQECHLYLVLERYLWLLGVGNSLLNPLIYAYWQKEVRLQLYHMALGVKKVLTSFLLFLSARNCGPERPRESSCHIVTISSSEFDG
Experimental: As a human GPR119 receptor expression cell for this test, the cell line “GeneBLAzer™ T-Rex GPR 119 CHO-K1 DA cells” that is commercially available from Invitrogen, was used. The cell was incubated in the DMEM media containing 1% dialyzed fetal bovine serum etc. The cell incubator was kept at constant temperature and constant humidity of 37° C., 5% CO2.
The human GPR119 receptor expressing cell was used to this test. Each of test compounds was added to be final concentrations of 0.1, 1, 10 μM in 96 well and tested in duplicate. A fixed amount of cell was added to each well of 96 well separately, and then treated with the test compound for 5 hours. After treatment of color development agent for 2 hours, the fluorescence value was determined with plate reader. To the luminous wavelength of control well, which was not treated with the agonist sample, but in which only a vehicle (i.e., cell) was contained, the ratio of the luminous wavelength of test well, which was treated with the agonist sample, was calculated, and then converted to obtain % value.
All the results were expressed as mean±SD, and each test groups and the control group were compared using student's t-test to adjudge the effects of each test groups.

GPR 119 Receptor = biological target: T2, GPR 119 Receptor (Mus musculus, UniProt Q7TQP3); experiment: Glucose tolerance test in normal mouse (animal test of activity for the GPR 119 receptor); assay type: in vivo; settings: normal male C57/6J Jms mice; for Decrease % of AUC at 10 mg/kg: oral glucose 2 g/kg, whole blood glucose AUC; for Decrease % of AUC (drop effect in blood glucose level): 10 mg/kg, oral 20% glucose 2 g/kg, whole blood glucose cAUC
T2 construct: from tissue; host or cells: whole animal: male C57/6J Jms mice (normal) or diet induced obesity C57BL/6J mice
T2 sequence (Q7TQP3 1-335): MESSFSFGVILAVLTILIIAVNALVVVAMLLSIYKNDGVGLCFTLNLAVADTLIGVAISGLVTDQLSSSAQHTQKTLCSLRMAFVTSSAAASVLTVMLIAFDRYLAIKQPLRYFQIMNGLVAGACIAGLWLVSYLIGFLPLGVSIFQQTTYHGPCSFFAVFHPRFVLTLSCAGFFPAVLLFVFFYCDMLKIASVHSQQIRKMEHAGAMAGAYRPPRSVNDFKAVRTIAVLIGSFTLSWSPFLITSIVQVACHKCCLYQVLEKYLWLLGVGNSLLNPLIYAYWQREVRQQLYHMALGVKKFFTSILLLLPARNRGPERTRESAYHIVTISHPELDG
Experimental: Male C57/6J Jms mice of 6-7 weeks of age were fasted for 16 hours before the start of glucose tolerance test. The experimental animal groups consist of: • A. a vehicle group (10% EtOH, 20% HPBCD in saline), • B. a positive control group administered with MBX-2982 (10 mg/kg), and • C. test groups administered with compound 516, 581, 586, 612, 640, 644 or etc. (10 mg/kg).
Before compound administration, that is, at 0 hour, whole blood glucose level was determined using a Glucometer (ACCU-CHEK, Roche). At 30 minutes after compound administration, whole blood glucose level was determined once again, and 20% glucose (2 g/kg/10 mL) was administered orally. Whole blood glucose level was determined at 20, 40, 60, 80, and 120 minutes after 20% glucose administration. Area under the curve (AUC) of whole blood glucose level was obtained using GraphPad Prism 5.0. The effect of glucose tolerance was adjudged with the corrected area under the curve (cAUC), on which the base value of glucose area under the curve was excluded.

[1] = test compound conc. 0.1 μM, human GPR119 CHO-K1 reporter cells, ratio to vehicle control well
[2] = test compound conc. 1 μM, human GPR119 CHO-K1 reporter cells, ratio to vehicle control well
[3] = test compound conc. 10 μM, human GPR119 CHO-K1 reporter cells, ratio to vehicle control well
[4] = human GPR119 receptor expressing cell, test concentrations 0.1, 1, 10 μM (concentration not given)

SMILES | activity at 0.1 µM (human GPR119 receptor; [1]) | activity at 1 µM (human GPR119 receptor; [2]) | activity at 10 µM (human GPR119 receptor; [3]) | % Activation (human GPR119 receptor; [4]) | maximum % activation (human GPR119 receptor; human GPR119 receptor expressing cell, test concentrations 0.1, 1, 10 μM, ratio to vehicle control well) | % Activation (human GPR119 receptor; [1]) | % Activation (human GPR119 receptor; [2]) | % Activation (human GPR119 receptor; [3]) | Decrease % of AUC at 10 mg/kg (GPR 119 Receptor) | Decrease % of AUC (drop effect in blood glucose level) (GPR 119 Receptor)
CN(C)C(=O)c1ccc(-c2ccc(OCC3CCN(CC(C)(C)F)CC3)cc2)cc1 [Compound 516, 4′-((1-(2-fluoro-2-methylpropyl)piperidin-4-yl)methoxy)-N,N-dimethylbiphenyl-4-carboxamide] | 185% | 243% | 289% | – | – | – | – | – | 43% | –
NC(=O)[C@@H]1CCCN1C(=O)c1ccc(-c2ccc(OCC3CCN(CC4(C(F)(F)F)CCC4)CC3)nc2)cc1 [Compound 581, (S)-1-(4-(6-((1-((1-(trifluoromethyl)cyclobutyl)methyl)piperidin-4-yl)methoxy)pyridine-3-yl)benzoyl)pyrrolidine-2-carboxamide] | 254% | 344% | 273% | – | – | – | – | – | 50% | –
NC(=O)[C@@H]1CCCN1C(=O)c1ccc(-c2ccc(OCC3CCN(CC4(C(F)(F)F)CC4)CC3)nc2)cc1 [Compound 586, (S)-1-(4-(6-((1-((1-(trifluoromethyl)cyclopropyl)methyl)piperidin-4-yl)methoxy)pyridine-3-yl)benzoyl)pyrrolidine-2-carboxamide] | 213% | 310% | 379% | – | – | – | – | – | 34% | –
CC(C)(F)CN1CCC(COc2ccc(-c3ccc(C(=O)N4CCC[C@@H](O)C4)cc3)cc2)CC1 [Compound 612, (R)-(4′-((1-(2-fluoro-2-methylpropyl)piperidin-4-yl)methoxy)biphenyl-4-yl)(3-hydroxypiperidin-1-yl)methanone] | – | – | – | – | – | – | – | – | 50% | 50%
CC(C)(F)CN1CCC(COc2ccc(-c3ccc(C(=O)N4CC[C@H](O)C4)c(F)c3)cc2)CC1 [Compound 640, (S)-(3-fluoro-4′-((1-(2-fluoro-2-methylpropyl)piperidin-4-yl)methoxy)biphenyl-4-yl)(3-hydroxypyrrolidine-1-yl)methanone] | – | – | – | – | – | – | – | – | 52% | –
O=C(c1ccc(-c2cnc(OCC3CCN(CC4(C(F)(F)F)CCC4)CC3)cn2)cc1F)N1CCC[C@@H](O)C1 [Compound 1013, (R)-(2-fluoro-4-(5-((1-((1-(trifluoromethyl)cyclobutyl)methyl)piperidin-4-yl)methoxy)pyrazine-2-yl)phenyl)(3-hydroxypiperidin-1-yl)methanone] | 410% | 490% | 426% | 490% | – | – | – | – | – | –
CCC(F)(CC)CN1CCC(COc2ccc(-c3ccc(C(=O)N4CCC[C@H]4C(N)=O)cc3F)cc2C#N)CC1 [Compound 1119, (S)-1-(3′-cyano-4′-((1-(2-ethyl-2-fluorobutyl)piperidin-4-yl)methoxy)-2-fluorobiphenylcarbonyl)pyrrolidine-2-carboxamide] | 406% | 428% | 482% | – | – | – | – | – | – | –
CCc1cnc(N2CCC(c3nc(COc4ccc(-n5cnnn5)cc4)cs3)CC2)nc1 [MBX-2982, reference compound] | – | – | – | – | 200% | 180% | 206% | 200% | 24% | 24%

Continued, in another order:

activity at 0.1 µM (human GPR119 receptor; [1]) | activity at 1 µM (human GPR119 receptor; [2]) | activity at 10 µM (human GPR119 receptor; [3]) | % Activation (human GPR119 receptor; [4]) | maximum % activation (human GPR119 receptor; human GPR119 receptor expressing cell, test concentrations 0.1, 1, 10 μM, ratio to vehicle control well) | % Activation (human GPR119 receptor; [1]) | % Activation (human GPR119 receptor; [2]) | % Activation (human GPR119 receptor; [3]) | SMILES | Decrease % of AUC at 10 mg/kg (GPR 119 Receptor) | Decrease % of AUC (drop effect in blood glucose level) (GPR 119 Receptor)
289% | 248% | 311% | – | – | – | – | – | CC(C)(F)CN1CCC(COc2ccc(-c3ccc(C(=O)N4CCC[C@H]4C(N)=O)c(F)c3)cn2)CC1 [Compound 658, (S)-1-(2-fluoro-4-(6-((1-(2-fluoro-2-methylpropyl)piperidin-4-yl)methoxy)pyridine-3-yl)benzoyl)pyrrolidine-2-carboxamide] | 38% | –
162% | 260% | 313% | – | – | – | – | – | CC(C)(F)CN1CCC(COc2ccc(-c3ccc(C(=O)N4CC[C@@H](O)C4)c(F)c3)nc2)CC1 [Compound 768, (R)-(2-fluoro-4-(5-((1-(2-fluoro-2-methylpropyl)piperidin-4-yl)methoxy)pyridine-2-yl)phenyl)(3-hydroxypyrrolidine-1-yl)methanone] | 40% | –
180% | 291% | 310% | – | – | – | – | – | CC(C)(F)CN1CCC(COc2cnc(-c3ccc(C(=O)N4CCC[C@H]4C(N)=O)c(F)c3)cn2)CC1 [Compound 944, (S)-1-(2-fluoro-4-(5-((1-(2-fluoro-2-methylpropyl)piperidin-4-yl)methoxy)pyrazine-2-yl)benzoyl)pyrrolidine-2-carboxamide] | 32% | –
191% | 232% | 307% | – | – | – | – | – | CC(C)(F)CN1CCC(COc2cnc(-c3ccc(C(=O)N4CCC[C@H]4C(N)=O)cc3)cn2)CC1 [Compound 950, (S)-1-(4-(5-((1-(2-fluoro-2-methylpropyl)piperidin-4-yl)methoxy)pyrazine-2-yl)benzoyl)pyrrolidine-2-carboxamide] | 39% | –
187% | 348% | 402% | 402% | – | – | – | – | CC(C)(F)CN1CCC(COc2ccc(-c3ccc(C(=O)N4CCC[C@H]4C(N)=O)c(F)c3)c(C#N)c2)CC1 [Compound 1028] | – | –
321% | 459% | 430% | – | – | – | – | – | CC(C)(F)CN1CCC(COc2cnc(-c3ccc(C(=O)N4CCC[C@H]4C(N)=O)c(F)c3)nc2)CC1 [Compound 1032, (S)-1-(2-fluoro-4-(5-((1-(2-fluoro-2-methylpropyl)piperidin-4-yl)methoxy)pyrimidin-2-yl)benzoyl)pyrrolidine-2-carboxamide] | 31% | –
223% | 478% | 439% | – | – | – | – | – | CC(C)(F)CN1CCC(COc2cnc(-c3ccc(C(=O)N4CCCC[C@@H]4C(N)=O)c(F)c3)nc2)CC1 [Compound 1037, (R)-1-(2-fluoro-4-(5-((1-(2-fluoro-2-methylpropyl)piperidin-4-yl)methoxy)pyrimidin-2-yl)benzoyl)piperidin-2-carboxamide] | 42% | –
407% | 474% | 408% | – | – | – | – | – | CCC(F)(CC)CN1CCC(COc2cnc(-c3ccc(C(=O)N4CCCC[C@@H]4C(N)=O)c(F)c3)nc2)CC1 [Compound 1055, (R)-1-(4-(5-((1-(2-ethyl-2-fluorobutyl)piperidin-4-yl)methoxy)pyrimidin-2-yl)-2-fluorobenzoyl)piperidine-2-carboxamide] | – | –
